From patent US12503452B2 (Curza Global, LLC, priority 2019, dated 2025)
Structures can show the parent of a compound that is named as a salt. Where two headings read alike, the source gives them in different places.

What was measured:
[1] = target: Rabbit Reticulocyte Lysate (eukaryotic protein synthesis); assay: Rabbit reticulocyte lysate luciferase assay (inhibition of eukaryotic protein synthesis); type: biochemical; conditions: read-out: Rabbit reticulocyte IC50 (μM/% inhib.)
Description: Inhibition of eukaryotic protein synthesis was determined using the Rabbit Reticulocyte Lysate System, Nuclease-Treated from Promega (catalog #L-4960) with slight modifications to the manufacturer's protocol. Compounds were serial diluted in 0.5 mL microcentrifuge tubes by mixing and transferring 50 μL from the highest concentration to 50 μL of water, mixing and transferring 50 μL of this 2-fold dilution to 50 μL of water. This mixing and transferring was repeated so that there are a total of 8 tubes with serial dilutions of compound at 10× the desired screening concentration that are ultimately diluted to 1× by the addition of rabbit reticulocyte luciferase synthesis mixture. Serial dilutions of compounds were added ([…]) to wells in a black round bottom 96-well plate. Water (2.5 μL) was used as a “no inhibitor” control in 4 wells/plate. No RNA control reaction mixture ([…]; see below) was used as a control in 4 wells/plate for background luminescence. Rabbit reticulocyte luciferase synthesis mixture (22.5 μL; see below) was added to wells with compounds or water mixture and incubated at 30° C. for 90 minutes. Luciferase assay reagent (25 μL) was added with luminescence measured using a BioTek Synergy HTX plate reader. % Inhibition was determined relative to no inhibitor controls.
Rabbit reticulocyte luciferase synthesis mixture:
• 1,000 μL rabbit reticulocyte lysate • 5.7 μL Luciferase Control RNA (1 μg/μL) • 26 μL complete amino acid mixture • 395 μL water No RNA Control • 70 μL rabbit reticulocyte lysate • 2 μL complete amino acid mixture • 28 μL water Minimum Inhibitory Concentration (MIC)

[2] = tested on: E. coli S30 extract (bacterial protein synthesis); assay: E. coli S30 extract coupled transcription-translation luciferase assay (inhibition of bacterial protein synthesis); type: biochemical; conditions: read-out: S30 IC50 (μM/% inhib.)
Description: E. coli S30 extract: Inhibition of bacterial protein synthesis was determined using the E. coli S30 Extract System for Circular DNA (Promega catalog #L-2010) and Luciferase Assay Reagent (Promega catalog #E1500) with slight modifications to a published protocol. Fyfe, C., Sutcliffe, J. A. and Grossman, T. H. (2012) “Development and characterization of a Pseudomonas aeruginosa in vitro coupled transcription-translation assay system for evaluation of translation inhibitors” J. Microbiol. Methods 90(3), 256-261.
Compounds were serial diluted in 0.5 mL microcentrifuge tubes by mixing and transferring 50 μL from the highest concentration to 50 μL of water, mixing and transferring 50 μL of this 2-fold dilution to 50 μL of water. This mixing and transferring was repeated so that there are a total of 8 tubes with serial dilutions of compound at 10× the desired screening concentration that are ultimately diluted to 1× by the addition of S30 luciferase synthesis mixture. Serial dilutions of compounds were added (2 μL) to wells in a black round bottom 96-well plate. Water (2 μL) was used as a “no inhibitor” control in 4 wells/plate. No DNA control reaction mixture (20 μL; see below) was used as a control in 4 wells/plate for background luminescence. S30 luciferase synthesis mixture (18 μL; see below) was added to wells with compounds or water mixture and incubated at 37° C. for 1 hour. Reactions were stopped by transferring to 4° C. refrigerator for 5 minutes then 25 μL of luciferase activity mix was added. Luminescence was measured using a BioTek Synergy HTX plate reader. % Inhibition was determined relative to no inhibitor controls.
S30 luciferase synthesis mixture:
• 445 μL S30 extract, circular • 712 μL S30 Premix without amino acids • 4.45 μL pBESTluc™ DNA (1 μg/μL) • 78 μL complete amino acid mixture • 267 μL water No DNA control: • 20 μL S30 extract, circular • 32 μL S30 Premix without amino acids • 7 μL complete amino acid mixture • 21 μL water Rabbit Reticulocyte lysate

E. coli (Ec) = assay: Broth microdilution minimum inhibitory concentration (MIC); type: cell-based; conditions: Escherichia coli, read-out: E. coli + bicarb MIC
Description: (§1) A certified BSL-2 laboratory was used for testing. Compounds were evaluated using the broth microdilution minimum inhibitory concentration (MIC) and minimum bactericidal concentration (MBC) assays defined by Clinical and Laboratory Standards Institute (CLSI) in the M26-A guideline against S. aureus (Sa), E. coli (Ec), K. pneumoniae (Kp), A. baumannii (Ab), E. faecalis (Ef) and P. aeruginosa (Pa).
(§2) MICs were determined using the Clinical Laboratory and Standards Institute (CLSI) Broth Microdilution Method with slight modification. Clinical and Laboratory Standards Institute (2012). “Methods for dilution antimicrobial susceptibility tests for bacteria that grow aerobically; approved standard, 9th ed. M07-A9. Clinical and Laboratory Standards Institute, Wayne, PA” Serial two-fold dilutions of compounds are prepared in sterile clear round-bottom 96-well plates.
(§3) To prepare microdilution trays, two-fold dilutions of antimicrobial agent are prepared in growth medium: Cation-Adjusted Mueller-Hinton Broth (CAMHB), or CAMHB supplemented with sodium bicarbonate (6.25 or 25 mM final concentration prepared from a 1.0M stock solution) or CAMHB supplemented with heat inactivated human serum (Fisher Cat. #BP2657100) 0-50% by adding 200 μL of the highest concentration to be tested (64 μg/mL, for example) in row A, mixing and transferring 100 μL from row A to 100 μL growth medium in row B, then repeating the mixing and transferring through row H of the 96-well plate, discarding the excess 100 μL remaining. This slight modification to the CLSI protocol enables evaluation of MICs for 3 compounds per plate in triplicate, albeit with only 8 compound dilutions (CLSI protocol enables 2 compounds in triplicate with 10 dilutions). Bacterial suspensions are added to a final concentration of 5×10^4 CFU/well by adding 5 μL of a 1:10 dilution of a 0.5 McFarland suspension (1×10^8 CFU/mL) for each bacterium evaluated. Bacterial suspensions were prepared using the growth method described by CLSI. Well-isolated colonies (3-5 from an agar plate) were selected using a sterile loop and used to inoculate a tube containing 4 mL of CAMHB. The cultures are incubated at 35±2° C. until it achieves or exceeds the turbidity of the 0.5 McFarland standard, determined by measuring A600nm (usually two to six hours). When growth exceeds a 0.5 McFarland standard, the turbidity is adjusted with broth to be equivalent to a 0.5 McFarland standard.

P. aeruginosa (Pa) = assay: as above; type: cell-based; conditions: Pseudomonas aeruginosa, P. aeruginosa; growth medium supplemented with sodium bicarbonate; read-out: Pa MIC + bicarb
Description: as §1, §2, §3

[3] = class by IC50 or % inhibition @ 1 μM
[4] = E. coli, growth medium supplemented with sodium bicarbonate
[5] = E. coli, growth medium with sodium bicarbonate

Row | Compound | IC50 [1, 3] [µM] | IC50 [2, 3] [µM] | MIC (E. coli (Ec); [4]) [µg/mL] | MIC (P. aeruginosa (Pa)) [µg/mL] | MIC (E. coli (Ec); [5]) [µg/mL] | IC50 ([2]; class by IC50 or % inhibition @ 1 μM, hydrochloride salt) [µM] | MIC (E. coli (Ec)) [µg/mL] | IC50 ([1]; % inhibition @ 1 μM) [µM] | IC50 ([2]; % inhibition @ 1 μM) [µM]
1 | C[C@H]1CN(C(=O)C(C)(C)N)CCN1C(=O)Nc1ccn(-c2ccc(CN3CCC(N)CC3)cc2)c(=O)n1 [Compound 56] | > 1 | < 0.5 | < 8 | > 32 | – | – | – | – | –
2 | C[C@](N)(CO)C(=O)N1CCN(C(=O)Nc2ccn(-c3ccc(CN4CCC(N)CC4)cc3)c(=O)n2)CC1 [Compound 97] | > 1 | < 0.5 | 8 to 32 | – | – | – | – | – | –
3 | Cc1cn(-c2ccc(CN3CCC(N)CC3)cc2)c(=O)nc1NC(=O)N1CCN(C(=O)C(C)(C)N)CC1 [Compound 234] | > 1 | > 1 | – | – | > 32 | – | – | – | –
4 | CC1(N)CCCN(Cc2ccc(-n3ccc(NC(=O)N4CCN(C(=O)C(C)(C)N)CC4)nc3=O)cc2)CC1.Cl (centres unmarked) [Compound 255] | > 1 | < 0.5 | – | – | < 8 | – | – | – | –
5 | CC(C)(N)C(=O)N1CCN(C(=O)Nc2ccn(-c3ccc(CN4CCCCC(N)C4)cc3)c(=O)n2)CC1 (centres unmarked) [Compound 240] | > 1 | 0.5 to 1 | – | – | > 32 | – | – | – | –
6 | C[C@H](N)C1CCN(Cc2ccc(-n3ccc(NC(=O)N4CCN(C(=O)[C@@](C)(N)CO)CC4)nc3=O)cc2)CC1 [Compound 221] | > 1 | < 0.5 | – | – | < 8 | – | – | – | –
7 | CC(Cc1ccc(-n2ccc(NC(=O)N3CCN(C(=O)C(C)(C)N)CC3)nc2=O)cc1)NCC1CNC1 (centres unmarked) [Compound 346, hydrochloride salt] | > 1 | – | – | – | – | 0.5 to 1 | > 32 | – | –
8 | CC(C)(N)N1CCN(C(=O)Nc2ccn(-c3ccc(CN4CCC(N)CC4)cc3)c(=O)n2)CC1 [Compound 230] | > 1 | > 1 | – | – | 8 to 32 | – | – | – | –
9 | CC(C)(N)C(=O)N1CCN(C(=O)Nc2ccn(-c3ccc(CN4CCC(N)CC4)c(Cl)c3)c(=O)n2)CC1 [Compound 99] | > 1 | < 0.5 | < 8 | > 32 | – | – | – | – | –
10 | CC1CC(N)CCN1Cc1ccc(-n2ccc(NC(=O)N3CCN(C(=O)C(C)(C)N)CC3)nc2=O)cc1 (centres unmarked) [Compound 252] | > 1 | < 0.5 | – | – | < 8 | – | – | – | –
11 | C[C@@H]1CN(C(=O)Nc2ccn(-c3ccc(CN4CCC(CN)CC4)cc3)c(=O)n2)CCN1C(=O)C(C)(C)N [Compound 65] | > 1 | < 0.5 | < 8 | > 32 | – | – | – | – | –
12 | CC(C)(N)C(=O)N1CCN(C(=O)Nc2ccn(-c3ccc(CN4CCC[C@@H](N)C4)cc3)c(=O)n2)CC1 [Compound 236] | > 1 | > 1 | – | – | < 8 | – | – | – | –
13 | CC(C)(N)C(=O)N1CCN(C(=O)Nc2ccn(-c3ccc(CN4CCC(C(C)(C)N)CC4)cc3)c(=O)n2)CC1 [Compound 253] | > 1 | < 0.5 | – | – | < 8 | – | – | – | –
14 | CC(C)(N)C(=O)N1CCN(C(=O)Nc2ccn(-c3ccc(CN4CCC(F)(CN)CC4)cc3)c(=O)n2)CC1 [Compound 248] | > 1 | < 0.5 | – | – | < 8 | – | – | – | –
15 | C[C@](N)(CO)C(=O)N1CCN(C(=O)Nc2ccn(-c3ccc(CCN4CCCC(N)CC4)cc3)c(=O)n2)CC1 (some centres unmarked) [Compound 381] | – | – | – | – | < 8 | – | – | > 1 | < 0.5
16 | CC1(N)CCCN(Cc2ccc(-n3ccc(NC(=O)N4CCN(C(=O)C(C)(C)N)CC4)nc3=O)cc2)C1 (centres unmarked) [Compound 246] | > 1 | > 1 | – | – | < 8 | – | – | – | –
17 | C[C@@H](N)C1CCN(Cc2ccc(-n3ccc(NC(=O)N4CCN(C(=O)[C@@](C)(N)CO)CC4)nc3=O)cc2)CC1 [Compound 222] | > 1 | < 0.5 | – | – | < 8 | – | – | – | –
18 | CC(C)(N)C(=O)N1CCN(C(=O)Nc2ccn(-c3ccc(CN4CC[C@@H](N)C(O)C4)cc3)c(=O)n2)CC1 (some centres unmarked) [Compound 267] | > 1 | < 0.5 | – | – | < 8 | – | – | – | –
19 | CNC1CCN(Cc2ccc(-n3ccc(NC(=O)N4CCN(C(=O)C(C)(C)N)CC4)nc3=O)cc2)CC1 [Compound 250] | > 1 | < 0.5 | – | – | < 8 | – | – | – | –
20 | CC(C)(N)C(=O)N1CCN(C(=O)Nc2ccn(-c3ccc(CN4CC[C@@H](N)C4)cc3)c(=O)n2)CC1 [Compound 239] | > 1 | < 0.5 | – | – | < 8 | – | – | – | –
21 | CC1(N)CN(Cc2ccc(-n3ccc(NC(=O)N4CCN(C(=O)C(C)(C)N)CC4)nc3=O)cc2)C1 [Compound 238] | > 1 | > 1 | – | – | < 8 | – | – | – | –
22 | CC(C)(N)C(=O)N1CCN(C(=O)Nc2ccn(-c3cccc(CCN4CCC(N)CC4)c3)c(=O)n2)CC1 [Compound 2] | > 1 | < 0.5 | 8 to 32 | > 32 | – | – | – | – | –
23 | CC(C)(N)C(=O)N1CCN(C(=O)Nc2ccn(-c3ccc(CN4CC[C@H](N)C4)cc3)c(=O)n2)CC1 [Compound 241] | > 1 | < 0.5 | – | – | 8 to 32 | – | – | – | –
24 | CC(C)(N)C(=O)N1CCN(C(=O)Nc2ccn(-c3ccc(CN4CC(N)C4)cc3)c(=O)n2)CC1 [Compound 244] | > 1 | > 1 | – | – | < 8 | – | – | – | –
25 | CC(C)(N)C(=O)N1CCN(C(=O)Nc2ccn(-c3ccc(CN4CCC[C@H](N)C4)cc3)c(=O)n2)CC1 [Compound 237] | > 1 | 0.5 to 1 | – | – | < 8 | – | – | – | –
26 | CC(C)(N)C(=O)N1CCN(C(=O)Nc2ccn(-c3ccc(CN4CCC(N)CC4)cc3)c(=O)c2)[C@H](C(=O)O)C1 [Compound 64] | > 1 | < 0.5 | > 32 | > 32 | – | – | – | – | –
